From US4452814A, “Nitrosourea derivatives” (priority 1981, dated 1984)

Assays:
[1] = test system: experimental leukemia and tumors; details: wide variety of experimental leukemia and tumors; cited from earlier work
Leukemia L 1210 cells = test: Antileukemic activity on Leukemia L 1210 in mice (i.p. inoculated, compound i.p.); format: in vivo, Male BDF1 mice; details: for Mean survival days, treated: control 7.7
Protocol: Antileukemic activity of a typical nitrosourea derivative of formula (I) according to this invention was tested on Leukemia L 1210 in mice, details of which are given below.
Male BDF1 mice, aged about 7 weeks old and weighing 22±1 g were used in groups of five animals for each test.
Leukemia L 1210 cells were inoculated intraperitoneally in a concentration of 1×10^6 cells/0.05 ml/mouse.
The test compound was dissolved in a physiological salt solution to give a series of solutions in predetermined concentrations and 0.1 ml of the each solution was administered intraperitoneally to each mouse once a day from the 24th hour after the tumor cell inoculation for 3 consecutive days. The antileukemic activity of the test compound was assessed by mean survival days and percentage increase in life-span. The percentage increase in life-span (ILS) was calculated as follows: [formula] T: The mean survival days of the treated animals C: The mean survival days of the untreated animals
The control test for this purpose was carried out in the same way as that used for the test compound except that 0.1 ml of the physiological salt solution was administered in place of the solution of the test compound.

[2] = Acute toxicity (LD50) in BDF1 male mice, i.p. or i.v., Litchfield-Wilcoxon's method; format: in vivo; details: BDF1 male mice about 6 weeks old, observed after 21 days
From the text: The nitrosourea derivatives of formulae (I), (II) and (III) according to this invention are further characterized by their low toxicity. Thus, acute toxicity represented by LD50 of some typical compounds of formula (I), when administered intraperitoneally (i.p.) or intravenously (i.v.) to BDF1 male mice aged about 6-weeks old and observed after the lapse of 21 days according to Litchfield-Wilcoxon's method, is as follows: […]

[3] = 0.5 mg/kg i.p. once a day for 3 days
[4] = 1 mg/kg i.p. once a day for 3 days
[5] = 2 mg/kg i.p. once a day for 3 days
[6] = 8 mg/kg i.p. once a day for 3 days
[7] = 16 mg/kg i.p. once a day for 3 days

Structure (SMILES): O=NN(CCCl)C(=O)N[C@@H]1O[C@H](CO)[C@@H](O)[C@H](O)[C@H]1O [GANU, 1-(2-chloroethyl)-3-(β-D-glucopyranosyl)-1-nitrosourea]
- antitumor activity, in words [1]: broad spectrum of antitumor activity

Structure (SMILES): O=NN(CCCl)C(=O)N[C@H]1[C@H](O)CCC[C@@H]1O [DONU, 1-(2-chloroethyl)-3-(1,3/2N-dihydroxycyclohexyl)-1-nitrosourea]
- antitumor activity, in words [1]: broad spectrum of antitumor activity

Structure (SMILES): NC(=O)CNC(=O)N(CCCl)N=O [N-[N'-(2-chloroethyl)-N'-nitrosocarbamoyl]glycine amide]
- ILS (percentage increase in life-span) (Leukemia L 1210 cells; [3]): 32.5%
- Mean survival days, treated (Leukemia L 1210 cells; [3]): 10.2 days
- ILS (percentage increase in life-span) (Leukemia L 1210 cells; [4]): 37.7%
- Mean survival days, treated (Leukemia L 1210 cells; [4]): 10.6 days
- ILS (percentage increase in life-span) (Leukemia L 1210 cells; [5]): 81.8%
- Mean survival days, treated (Leukemia L 1210 cells; [5]): 14.0 days
- ILS (percentage increase in life-span) (Leukemia L 1210 cells; [6]): > 679.2%
- Mean survival days, treated (Leukemia L 1210 cells; [6]): > 60.0 days
- ILS (percentage increase in life-span) (Leukemia L 1210 cells; [7]): > 679.2%
- Mean survival days, treated (Leukemia L 1210 cells; [7]): > 60.0 days
- LD50 ([2]; i.v.): 22.4 mg/kg
- LD50 at 504 h ([2]; mouse, in vivo, ip): 21.2 mg/kg

Structure (SMILES): NC(=O)C1CCCN1C(=O)N(CCCl)N=O (stereo not drawn) [N-[N'-(2-chloroethyl)-N'-nitrosocarbamoyl]-proline amide]
- LD50 ([2]; i.p.): 219.6 mg/kg
- LD50 ([2]; i.v.): 195.4 mg/kg

Structure (SMILES): CN(CC(N)=O)C(=O)N(CCCl)N=O [N-[N'-(2-chloroethyl)-N'-nitrosocarbamoyl]sarcosine amide]
- LD50 ([2]; i.p.): 392.0 mg/kg
- LD50 ([2]; i.v.): 426.6 mg/kg
